MIC data for 34 compounds are collected here from ChEMBL document CHEMBL4402510, “Caprazamycins: Promising lead structures acting on a novel antibacterial target MraY” (Eur J Med Chem, 2019).

Values after ≈ are worked out from the molar mass of the structure shown.

Holding throughout (format): functional
The subject of assay [1] is Mycobacterium tuberculosis variant bovis. The assay is described as follows: Antibacterial activity against Mycobacterium bovis Ravenel.
The test system is the same in assay [2]. The assay is described as follows: Antibacterial activity against Mycobacterium bovis after 20 hrs by NCCLS-based two-fold broth dilution method.
The test system is the same in assay [3]. Description: Antibacterial activity against Mycobacterium bovis.

As for `CCCCCCCc1ccc(NC(=O)C2=CCN(C)[C@@H]([C@H](O[C@@H]3O[C@H](CN)[C@@H](O)[C@H]3O)[C@H]3O[C@@H](n4ccc(=O)[nH]c4=O)[C@H](O)[C@@H]3O)C(=O)N2C)cc1`, in assay [1], inhibition of growth (MIC) required 0.78 µg/mL (≈ 1.07 µM). Take `CCCCCCCCCCCCCCCCCCCCNC(=O)C1=CCN(C)[C@@H]([C@H](O[C@@H]2O[C@H](CN)[C@@H](O)[C@H]2O)[C@H]2O[C@@H](n3ccc(=O)[nH]c3=O)[C@H](O)[C@@H]2O)C(=O)N1C`: the lowest concentration to inhibit growth in assay [1] (MIC) was 0.78 µg/mL (≈ 0.932 µM). `CCCCCCCC/C=C/CCCCCCCCNC(=O)C1=CCN(C)[C@@H]([C@H](O[C@@H]2O[C@H](CN)[C@@H](O)[C@H]2O)[C@H]2O[C@@H](n3ccc(=O)[nH]c3=O)[C@H](O)[C@@H]2O)C(=O)N1C`: in assay [1], the MIC – broadly, the least concentration at which growth counts as inhibited – amounted to 3.13 µg/mL (≈ 3.88 µM).

`CCCCCCCCCCCCCCCCCCCCCNC(=O)C1=CCN(C)[C@@H]([C@H](O[C@@H]2O[C@H](CN)[C@@H](O)[C@H]2O)[C@H]2O[C@@H](n3ccc(=O)[nH]c3=O)[C@H](O)[C@@H]2O)C(=O)N1C` gave an MIC in assay [1] of 1.56 µg/mL (≈ 1.83 µM).

Compound `CCCCCCCCCCCCCNC(=O)C1=CCN(C)[C@@H]([C@H](O[C@@H]2O[C@H](CN)[C@@H](O)[C@H]2O)[C@H]2O[C@@H](n3ccc(=O)[nH]c3=O)[C@H](O)[C@@H]2O)C(=O)N1C` yielded an MIC in assay [1] of 1.56 µg/mL (≈ 2.11 µM). Regarding `CCCCc1ccc(NC(=O)C2=CCN(C)[C@@H]([C@H](O[C@@H]3O[C@H](CN)[C@@H](O)[C@H]3O)[C@H]3O[C@@H](n4ccc(=O)[nH]c4=O)[C@H](O)[C@@H]3O)C(=O)N2C)cc1`, the minimal inhibitory concentration (MIC) in assay [2] turned out to be 3.13 µg/mL (≈ 4.54 µM). For the compound `CCCCCCCNC(=O)C1=CCN(C)[C@@H]([C@H](O[C@@H]2O[C@H](CN)[C@@H](O)[C@H]2O)[C@H]2O[C@@H](n3ccc(=O)[nH]c3=O)[C@H](O)[C@@H]2O)C(=O)N1C`, the minimal inhibitory concentration (MIC) in assay [1] was found to be 1.56 µg/mL (≈ 2.38 µM).

Compound `CO[C@@H]1[C@@H](OC)[C@H](C)O[C@@H](OC(=O)C[C@@H](C)CC(=O)O[C@@H](CCCCCCCCCCC(C)C)CC(=O)O[C@H]2CN(C)[C@@H]([C@H](O[C@@H]3O[C@H](CN)[C@@H](O)[C@H]3O)[C@H]3O[C@@H](n4ccc(=O)[nH]c4=O)[C@H](O)[C@@H]3O)C(=O)N(C)[C@@H]2C(=O)O)[C@@H]1OC` returned a minimal inhibitory concentration (MIC) in assay [3] of 3.13 µg/mL (≈ 2.73 µM). For the compound `C=CCCCCCCCCCOC(=O)C1=CCN(C)[C@@H]([C@H](O[C@@H]2O[C@H](CN)[C@@H](O)[C@H]2O)[C@H]2O[C@@H](n3ccc(=O)[nH]c3=O)[C@H](O)[C@@H]2O)C(=O)N1C`, in assay [1], it took 12.5 µg/mL (≈ 17.6 µM) to inhibit growth (MIC). Same read-out and setting: next, `CN1C(=O)[C@H]([C@H](O[C@@H]2O[C@H](CN)[C@@H](O)[C@H]2O)[C@H]2O[C@@H](n3ccc(=O)[nH]c3=O)[C@H](O)[C@@H]2O)N(C)CC=C1C(=O)Nc1ccc(C2CCCCC2)cc1`: 1.56 µg/mL (≈ 2.18 µM); `CCCCCCCCCCCCCCCNC(=O)C1=CCN(C)[C@@H]([C@H](O[C@@H]2O[C@H](CN)[C@@H](O)[C@H]2O)[C@H]2O[C@@H](n3ccc(=O)[nH]c3=O)[C@H](O)[C@@H]2O)C(=O)N1C`: 1.56 µg/mL (≈ 2.03 µM); `CCCCCCCCCCCNC(=O)C1=CCN(C)[C@@H]([C@H](O[C@@H]2O[C@H](CN)[C@@H](O)[C@H]2O)[C@H]2O[C@@H](n3ccc(=O)[nH]c3=O)[C@H](O)[C@@H]2O)C(=O)N1C`: 1.56 µg/mL (≈ 2.19 µM).

As for `CCCCOc1ccc(NC(=O)C2=CCN(C)[C@@H]([C@H](O[C@@H]3O[C@H](CN)[C@@H](O)[C@H]3O)[C@H]3O[C@@H](n4ccc(=O)[nH]c4=O)[C@H](O)[C@@H]3O)C(=O)N2C)cc1`, the lowest concentration to inhibit growth in assay [1] (MIC) was 3.13 µg/mL (≈ 4.44 µM). Same read-out and setting: the same measure for `CCCCCCc1ccc(NC(=O)C2=CCN(C)[C@@H]([C@H](O[C@@H]3O[C@H](CN)[C@@H](O)[C@H]3O)[C@H]3O[C@@H](n4ccc(=O)[nH]c4=O)[C@H](O)[C@@H]3O)C(=O)N2C)cc1`: 0.2 µg/mL (≈ 0.279 µM); for `CCCCCCCCCCCCCCc1ccc(NC(=O)C2=CCN(C)[C@@H]([C@H](O[C@@H]3O[C@H](CN)[C@@H](O)[C@H]3O)[C@H]3O[C@@H](n4ccc(=O)[nH]c4=O)[C@H](O)[C@@H]3O)C(=O)N2C)cc1`: 3.13 µg/mL (≈ 3.78 µM); for `CCCCCCCCCNC(=O)C1=CCN(C)[C@@H]([C@H](O[C@@H]2O[C@H](CN)[C@@H](O)[C@H]2O)[C@H]2O[C@@H](n3ccc(=O)[nH]c3=O)[C@H](O)[C@@H]2O)C(=O)N1C`: 1.56 µg/mL (≈ 2.28 µM). The same measure, in the same setting: next, `CC/C=C/CCCCCCCCCCOC(=O)C1=CCN(C)[C@@H]([C@H](O[C@@H]2O[C@H](CN)[C@@H](O)[C@H]2O)[C@H]2O[C@@H](n3ccc(=O)[nH]c3=O)[C@H](O)[C@@H]2O)C(=O)N1C`: 6.25 µg/mL (≈ 8.31 µM). Take `CCCCCCCCCCCCCCNC(=O)C1=CCN(C)[C@@H]([C@H](O[C@@H]2O[C@H](CN)[C@@H](O)[C@H]2O)[C@H]2O[C@@H](n3ccc(=O)[nH]c3=O)[C@H](O)[C@@H]2O)C(=O)N1C`: 1.56 µg/mL (≈ 2.07 µM) was the least that counted as inhibitory in assay [1] (MIC).

`CCCCc1ccc(NC(=O)C2=CCN[C@@H]([C@H](O[C@@H]3O[C@H](CN)[C@@H](O)[C@H]3O)[C@H]3O[C@@H](n4ccc(=O)[nH]c4=O)[C@H](O)[C@@H]3O)C(=O)N2C)cc1`: the MIC in assay [1] is 3.13 µg/mL (≈ 4.64 µM). In turn, `CCCCCCCCCCCCCCCCCCOC(=O)C1=CCN(C)[C@@H]([C@H](O[C@@H]2O[C@H](CN)[C@@H](O)[C@H]2O)[C@H]2O[C@@H](n3ccc(=O)[nH]c3=O)[C@H](O)[C@@H]2O)C(=O)N1C` had an MIC in assay [1] of 3.13 µg/mL (≈ 3.86 µM). Still for that read-out and setting: the same measure for `CN1C(=O)[C@H]([C@H](O[C@@H]2O[C@H](CN)[C@@H](O)[C@H]2O)[C@H]2O[C@@H](n3ccc(=O)[nH]c3=O)[C@H](O)[C@@H]2O)N(C)CC=C1C(=O)NC1CCCCCCCCCCC1`: 1.56 µg/mL (≈ 2.16 µM); for `CCCCCCCCNC(=O)C1=CCN(C)[C@@H]([C@H](O[C@@H]2O[C@H](CN)[C@@H](O)[C@H]2O)[C@H]2O[C@@H](n3ccc(=O)[nH]c3=O)[C@H](O)[C@@H]2O)C(=O)N1C`: 1.56 µg/mL (≈ 2.33 µM).

With `CCCCCNC(=O)C1=CCN(C)[C@@H]([C@H](O[C@@H]2O[C@H](CN)[C@@H](O)[C@H]2O)[C@H]2O[C@@H](n3ccc(=O)[nH]c3=O)[C@H](O)[C@@H]2O)C(=O)N1C`, it took 6.25 µg/mL (≈ 9.97 µM) to inhibit growth in assay [1] (MIC).

`CCCCCCCCCCCCCOC(=O)C1=CCN(C)[C@@H]([C@H](O[C@@H]2O[C@H](CN)[C@@H](O)[C@H]2O)[C@H]2O[C@@H](n3ccc(=O)[nH]c3=O)[C@H](O)[C@@H]2O)C(=O)N1C`: it took 3.13 µg/mL (≈ 4.23 µM) to inhibit growth in assay [1] (MIC). Consider `CCCCCCCCCCCCCCCCCCCNC(=O)C1=CCN(C)[C@@H]([C@H](O[C@@H]2O[C@H](CN)[C@@H](O)[C@H]2O)[C@H]2O[C@@H](n3ccc(=O)[nH]c3=O)[C@H](O)[C@@H]2O)C(=O)N1C`, for which the lowest concentration to inhibit growth in assay [1] (MIC) was 1.56 µg/mL (≈ 1.9 µM). Same read-out and setting: the same measure for `CCCCCCCCCCNC(=O)C1=CCN(C)[C@@H]([C@H](O[C@@H]2O[C@H](CN)[C@@H](O)[C@H]2O)[C@H]2O[C@@H](n3ccc(=O)[nH]c3=O)[C@H](O)[C@@H]2O)C(=O)N1C`: 1.56 µg/mL (≈ 2.24 µM); for `CCCCCCNC(=O)C1=CCN(C)[C@@H]([C@H](O[C@@H]2O[C@H](CN)[C@@H](O)[C@H]2O)[C@H]2O[C@@H](n3ccc(=O)[nH]c3=O)[C@H](O)[C@@H]2O)C(=O)N1C`: 3.13 µg/mL (≈ 4.89 µM); for `CCc1ccc(NC(=O)C2=CCN(C)[C@@H]([C@H](O[C@@H]3O[C@H](CN)[C@@H](O)[C@H]3O)[C@H]3O[C@@H](n4ccc(=O)[nH]c4=O)[C@H](O)[C@@H]3O)C(=O)N2C)cc1`: 1.56 µg/mL (≈ 2.36 µM). Still for that read-out and setting: next, `CCCCCCCCCCCCCCCCNC(=O)C1=CCN(C)[C@@H]([C@H](O[C@@H]2O[C@H](CN)[C@@H](O)[C@H]2O)[C@H]2O[C@@H](n3ccc(=O)[nH]c3=O)[C@H](O)[C@@H]2O)C(=O)N1C`: 3.13 µg/mL (≈ 4.01 µM).

Compound `CCCCCCCOc1ccc(NC(=O)C2=CCN(C)[C@@H]([C@H](O[C@@H]3O[C@H](CN)[C@@H](O)[C@H]3O)[C@H]3O[C@@H](n4ccc(=O)[nH]c4=O)[C@H](O)[C@@H]3O)C(=O)N2C)cc1` displayed an MIC in assay [1] of 0.78 µg/mL (≈ 1.04 µM). This MIC lies about 4-fold lower than the previous one.

In assay [1], `CCCCCCCCCCCCCCCCCNC(=O)C1=CCN(C)[C@@H]([C@H](O[C@@H]2O[C@H](CN)[C@@H](O)[C@H]2O)[C@H]2O[C@@H](n3ccc(=O)[nH]c3=O)[C@H](O)[C@@H]2O)C(=O)N1C` showed an MIC of 1.56 µg/mL (≈ 1.96 µM).

With `CCCCCCCCCCOC(=O)C1=CCN(C)[C@@H]([C@H](O[C@@H]2O[C@H](CN)[C@@H](O)[C@H]2O)[C@H]2O[C@@H](n3ccc(=O)[nH]c3=O)[C@H](O)[C@@H]2O)C(=O)N1C`, the minimum inhibitory concentration (MIC) in assay [1] was found to be 12.5 µg/mL (≈ 17.9 µM). Consider `CCCCCCCCCCCCNC(=O)C1=CCN(C)[C@@H]([C@H](O[C@@H]2O[C@H](CN)[C@@H](O)[C@H]2O)[C@H]2O[C@@H](n3ccc(=O)[nH]c3=O)[C@H](O)[C@@H]2O)C(=O)N1C`, for which the MIC in assay [1] is 1.56 µg/mL (≈ 2.15 µM). Same read-out and setting: the same measure for `CCCCCCCCCCCCCCCCCCNC(=O)C1=CCN(C)[C@@H]([C@H](O[C@@H]2O[C@H](CN)[C@@H](O)[C@H]2O)[C@H]2O[C@@H](n3ccc(=O)[nH]c3=O)[C@H](O)[C@@H]2O)C(=O)N1C`: 1.56 µg/mL (≈ 1.93 µM).
